PMC6476888, “Design and synthesis of anticancer 1-hydroxynaphthalene-2-carboxanilides with a p53 independent mechanism of action” (Scientific Reports, 2019)
Like-named read-outs stand apart in the source and are kept apart here.

Assays:
HCT116^+/+ = assay: Antiproliferative assay (MTS, 72 h) on HCT116 wild type; assay type: cell-based, human; details: MTS, 72 h incubation, read-out: Activity IC50 HCT116^+/+
Protocol: (§1) All of the synthesized compounds were tested for their antiproliferative activity against human colon cancer (Table 1). We used both the wild-type and p53-negative cell lines (HCT116^+/+ and HCT116^−/−, respectively). Mutations in the TP53 gene are present in more than 50% of all cancers and often specifically correspond to a difficult therapy, resistance or a bad prognosis[60]–[63]. The active compounds were additionally tested for their cytotoxicity against normal human fibroblasts. We used 5-fluorouracil (5-FLU), doxorubicin (DOX) and CP-31398 as the standards. 5-FLU is one of the first antimetabolites that was dedicated for cancer treatment and is still used for a wide range of cancers including colon carcinoma. Doxorubicin is a DNA topoisomerase II poison with a high intercalating potency, which is able to induce apoptosis through the p53 pathway. Although DOX has been described as being ineffective in some p53 mutants, its level of activity against the p53 null lines is similar. CP-31398, on the other hand, is an experimental drug in the clinical phase and its mechanism of action is through the reactivation some of p53 mutants. Its activity against the p53 null cell lines is greatly diminished and is actually lower than its cytotoxicity.
(§2) The human colon cancer cell line HCT116 wild type was obtained from ATCC and the normal human fibroblast cell lines NHDF were obtained from PromoCell. The human colon cancer cell line HCT116 with a p53 deletion (p53^−/−) was kindly provided by Prof. M. Rusin from the Maria Sklodowska-Curie Memorial Cancer Centre and Institute of Oncology in Gliwice, Poland[89]. The cells were grown as monolayer cultures in Dulbecco’s modified Eagle’s medium with the antibiotic gentamicin (200 μL/100 mL medium) in 75 cm^2 flasks (Nunc). The DMEM for the HCT116 were supplemented with 12% heat-inactivated fetal bovine serum (Sigma-Aldrich, St. Louis, MO, USA) and for NHDF with 15% non-inactivated fetal bovine serum (Sigma Aldrich, St. Louis, MO, USA). The cells were cultured under standard conditions at 37 °C in a humidified atmosphere at 5% CO2.
(§3) The cells were seeded in 96-well plates (Nunc) at a density of 5,000 cells/well (HCT116) and 4,000 cells/well (NHDF) and incubated at 37 °C for 24 h. The assay was performed following a 72 h incubation with varying concentrations of the compounds that were being tested. Then, 20 µL of CellTiter 96® AQueous One Solution-MTS (Promega) was added to each well (with 100 µL DMEM without phenol red) and incubated for 1 h at 37 °C. The optical densities of the samples were analyzed at 490 nm using a Synergy 4 multi-plate reader (BioTek, Winooski, VT, USA). The results are expressed as the percentage of the control and were calculated as the inhibitory concentration (IC50) values (using a GraphPad Prism 7). The IC50 parameter was defined as the compound concentration that was necessary to reduce the proliferation of cells to 50% of the untreated control. Each individual compound was tested in triplicate in a single experiment with each experiment being repeated three or four times.

HCT116^−/− = assay: Antiproliferative assay (MTS, 72 h) on HCT116 with p53 deletion; assay type: cell-based, human; details: for IC50: MTS, 72 h incubation
Protocol: as §1, §2, §3

NHDF = assay: Cytotoxicity (MTS, 72 h) against normal human fibroblasts; assay type: cell-based; details: MTS, 72 h incubation
Protocol: as §1, §2, §3

| SMILES | IC50 (HCT116^+/+) [µM] | IC50 (HCT116^−/−) [µM] | IC50 (NHDF) [µM] | IC50 (HCT116^+/+; Homo sapiens, HCT-116) [µM] | IC50 (HCT116^−/−; Homo sapiens, HCT-116) [µM] | IC50 (NHDF; Homo sapiens, NHDF) [µM] | selectivity towards the p53 null cells (HCT116 p53^−/− vs wild type) (HCT116^−/−) |
| --- | --- | --- | --- | --- | --- | --- | --- |
| O=C(Nc1cccc(Cl)c1Cl)c1ccc2ccccc2c1O [5d] | 4.66 ± 0.58 | 8.25 ± 0.64 | > 25 | – | – | – | – |
| O=C(Nc1ccccc1C(F)(F)F)c1ccc2ccccc2c1O [7a] | > 25 | 21.4 ± 1.24 | – | – | – | – | – |
| O=C(Nc1ccc(Cl)cc1)c1ccc2ccccc2c1O [5c] | 9.62 ± 0.75 | 9.41 ± 0.78 | > 25 | – | – | – | – |
| O=C(Nc1ccc([N+](=O)[O-])cc1C(F)(F)F)c1ccc2ccccc2c1O [7j] | 2.04 ± 0.71 | 4.74 ± 1.68 | 12.6 ± 1.32 | – | – | – | – |
| O=C(Nc1ccc([N+](=O)[O-])c(C(F)(F)F)c1)c1ccc2ccccc2c1O [7p] | 1.64 ± 0.47 | 1.39 ± 0.44 | 9.68 ± 1.49 | – | – | – | – |
| O=C(Nc1ccc(Cl)cc1C(F)(F)F)c1ccc2ccccc2c1O [7h] | > 25 | > 25 | – | – | – | – | – |
| COc1cccc(NC(=O)c2ccc3ccccc3c2O)c1 [2b] | 8.51 ± 1.69 | 24.1 ± 3.54 | > 25 | – | – | – | – |
| O=c1[nH]cc(F)c(=O)[nH]1 [5-FLU, 5-fluorouracil, reference compound] | – | – | – | 4.42 ± 0.7 | 4.69 ± 0.31 | > 25 | – |
| O=C(Nc1cc(Cl)c(Cl)cc1Cl)c1ccc2ccccc2c1O [5j] | 3 ± 0.24 | 6.21 ± 0.66 | 20.2 ± 0.79 | – | – | – | – |
| O=C(Nc1ccc(Br)c(Cl)c1)c1ccc2ccccc2c1O [5t] | 12.3 ± 0.79 | 12.6 ± 0.69 | > 25 | – | – | – | not selective |
| O=C(Nc1ccc(C(F)(F)F)c(F)c1)c1ccc2ccccc2c1O [4w] | – | – | – | 3.25 ± 0.94 | 4.82 ± 1.46 | 22.8 ± 2.69 | – |
| O=C(Nc1ccc(C(F)(F)F)cc1)c1ccc2ccccc2c1O [7c] | 4.31 ± 0.51 | 1.07 ± 0.26 | 16.6 ± 2.17 | – | – | – | – |
| O=C(Nc1ccc(Cl)cc1Br)c1ccc2ccccc2c1O [6h] | 9.54 ± 2.71 | 13.2 ± 2.3 | > 25 | – | – | – | – |
| Cc1cc(C)cc(NC(=O)c2ccc3ccccc3c2O)c1 [3f] | – | – | – | 19.3 ± 1.68 | > 25 | > 25 | – |
| O=C(Nc1c(Cl)cccc1Cl)c1ccc2ccccc2c1O [5g] | > 25 | > 25 | – | – | – | – | – |
| O=C(Nc1ccc(C(F)(F)F)cc1C(F)(F)F)c1ccc2ccccc2c1O [7d] | 11.3 ± 1.31 | 8.69 ± 1.02 | > 25 | – | – | – | – |
| O=C(Nc1cc(C(F)(F)F)ccc1Br)c1ccc2ccccc2c1O [6k] | 8.18 ± 1.72 | 7.15 ± 1.96 | 22.2 ± 0.83 | – | – | – | – |
| O=C(Nc1ccc(Br)cc1)c1ccc2ccccc2c1O [6c] | 5.25 ± 0.67 | 11 ± 0.97 | > 25 | – | – | – | – |
| O=C(Nc1cc(Br)ccc1Cl)c1ccc2ccccc2c1O [5q] | 4.18 ± 1.49 | 5.4 ± 2.04 | > 25 | – | – | – | – |
| O=C(Nc1ccc(Cl)cc1Cl)c1ccc2ccccc2c1O [5e] | 1.95 ± 0.5 | 6.06 ± 1.13 | > 25 | – | – | – | – |
| O=C(Nc1cc(C(F)(F)F)ccc1Cl)c1ccc2ccccc2c1O [5r] | – | – | – | 2.48 ± 0.31 | 1.46 ± 0.21 | 12.4 ± 1.14 | – |
| O=C(Nc1cc(Cl)ccc1Cl)c1ccc2ccccc2c1O [5f] | 7.45 ± 0.85 | 7.19 ± 1.15 | > 25 | – | – | – | – |
| O=C(Nc1cccc([N+](=O)[O-])c1)c1ccc2ccccc2c1O [8b] | 6.82 ± 1.17 | 3.1 ± 0.63 | > 25 | – | – | – | – |
| O=C(Nc1cc(Cl)c(Cl)c(Cl)c1)c1ccc2ccccc2c1O [5l] | 1.31 ± 0.15 | 2.86 ± 0.33 | 7.01 ± 0.42 | – | – | – | – |
| Cc1ccc(NC(=O)c2ccc3ccccc3c2O)cc1 [3c] | > 25 | > 25 | – | – | – | – | – |
| O=C(Nc1ccccc1F)c1ccc2ccccc2c1O [4a] | > 25 | > 25 | – | – | – | – | – |
| O=C(Nc1ccccc1)c1ccc2ccccc2c1O [compound 1] | – | – | – | > 25 | > 25 | – | – |
